Assay results reported in patent publication US6670350B1, “Method of administering dienogest in high dosages to reduce the body of the breast and pharmaceutical composition for same” (JenaPharm GmbH & Co. KG, priority 1999, dated 2003).

Experiments:
[1] = blood fat values on administration of high dosages of dienogest; assay type: in vivo
body of the breast = test: clinical study, sonographic examination of the breast; assay type: in vivo, patients (women)
Method: In a clinical study, the reduction of the body of the breast was detected sonographically in 21 patients ranging in age from 18 to 52 years. In each case, 10 mg of dienogest were administered orally as a tablet over a period of 24 weeks at intervals of 12 hours. The daily dose therefore amounted to 20 mg of dienogest. The breast was examined sonographically before the treatment as well as after 12 and 24 weeks of continuous therapy.

For `C[C@]12CCC3=C4CCC(=O)C=C4CC[C@H]3[C@@H]1CC[C@@]2(O)CC#N` [dienogest, 17-hydroxy-3-oxo-19-nor-17α-pregna-4,9-diene-21-nitrile], the HDL cholesterol level [1] was “increased”, the “body of the breast (detected sonographically)” value (body of the breast; 21 patients aged 18 to 52 years, 10 mg orally as tablet every 12 hours (20 mg daily) over 24 weeks, on the average, in all women) was “decreased significantly” and the “symptoms of mastopathic changes, such as duct ectasia” value (body of the breast; 21 patients, 10 mg orally every 12 hours (20 mg daily) over 24 weeks) was “receded completely”.
